Measured values published in ChEMBL document CHEMBL1201862, “PubChem BioAssay data set” (2004).
The source made the active and inactive calls.

Experiments:
[1] = molecular target: Neuropeptides B/W receptor type 1 (Homo sapiens, UniProt P48145); test: Fluorescence-based dose response cell-based high throughput screening assay to identify antagonists of the G-protein coupled receptor 7 (GPR7). [Related pubchem assays: 1952 (Screening assay (GPR7 antagonists).), 1880 (Summary AID.)]; type: functional
Chain of Neuropeptides B/W receptor type 1 (P48145 whole entry): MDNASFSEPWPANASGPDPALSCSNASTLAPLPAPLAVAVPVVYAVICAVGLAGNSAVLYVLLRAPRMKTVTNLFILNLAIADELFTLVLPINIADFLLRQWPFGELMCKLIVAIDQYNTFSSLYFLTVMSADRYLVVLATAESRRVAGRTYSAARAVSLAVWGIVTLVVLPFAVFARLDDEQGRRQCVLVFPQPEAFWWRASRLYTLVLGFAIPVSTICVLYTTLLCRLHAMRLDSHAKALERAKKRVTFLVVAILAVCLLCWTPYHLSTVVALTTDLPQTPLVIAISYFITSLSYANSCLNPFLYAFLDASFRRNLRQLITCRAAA

[2] = molecular target: T1, Neuropeptide Y receptor type 2 (Homo sapiens, UniProt P49146); test: IC50 for human NPY-Y2 blockade – cell-based, counter-screen for NPY-Y1 antagonist project, dose response (AID 1278); type: functional
T1 sequence (P49146 whole entry): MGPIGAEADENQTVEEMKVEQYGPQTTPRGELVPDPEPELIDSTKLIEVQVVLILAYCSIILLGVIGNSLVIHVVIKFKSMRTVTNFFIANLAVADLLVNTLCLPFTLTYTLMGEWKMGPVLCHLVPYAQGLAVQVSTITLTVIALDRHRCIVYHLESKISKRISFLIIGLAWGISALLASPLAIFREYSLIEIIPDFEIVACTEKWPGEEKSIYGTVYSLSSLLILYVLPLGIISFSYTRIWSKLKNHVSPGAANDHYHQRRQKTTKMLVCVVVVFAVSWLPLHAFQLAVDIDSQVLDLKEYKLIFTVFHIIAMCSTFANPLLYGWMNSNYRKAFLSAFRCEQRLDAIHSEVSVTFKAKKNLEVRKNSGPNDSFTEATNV

[3] = molecular target: Melanin-concentrating hormone receptor 1 (Homo sapiens, UniProt Q99705); test: Fluorescence-based counterscreen for antagonists of the G-protein coupled receptor 7 (GPR7): cell-based high throughput dose response assay to identify antagonists of the melanin-concentrating hormone receptor 1 (MCHR1).; type: functional
Chain of Melanin-concentrating hormone receptor 1 (Q99705 whole entry): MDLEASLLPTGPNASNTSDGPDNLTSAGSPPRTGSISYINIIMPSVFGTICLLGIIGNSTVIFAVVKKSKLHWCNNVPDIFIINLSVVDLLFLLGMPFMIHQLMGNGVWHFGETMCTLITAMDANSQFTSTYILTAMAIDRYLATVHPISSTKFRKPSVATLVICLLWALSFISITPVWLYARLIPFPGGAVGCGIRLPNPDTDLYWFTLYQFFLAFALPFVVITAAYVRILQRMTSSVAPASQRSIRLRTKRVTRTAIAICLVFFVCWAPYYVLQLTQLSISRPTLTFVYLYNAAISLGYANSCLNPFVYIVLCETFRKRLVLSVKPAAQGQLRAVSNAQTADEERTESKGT

[4] = molecular target: T2, Neuropeptide Y receptor type 1 (Homo sapiens, UniProt P25929); test: IC50 of human NPY-Y1 blockers – cell-based, dose response (AID 1277); type: functional
T2 sequence (P25929 whole entry): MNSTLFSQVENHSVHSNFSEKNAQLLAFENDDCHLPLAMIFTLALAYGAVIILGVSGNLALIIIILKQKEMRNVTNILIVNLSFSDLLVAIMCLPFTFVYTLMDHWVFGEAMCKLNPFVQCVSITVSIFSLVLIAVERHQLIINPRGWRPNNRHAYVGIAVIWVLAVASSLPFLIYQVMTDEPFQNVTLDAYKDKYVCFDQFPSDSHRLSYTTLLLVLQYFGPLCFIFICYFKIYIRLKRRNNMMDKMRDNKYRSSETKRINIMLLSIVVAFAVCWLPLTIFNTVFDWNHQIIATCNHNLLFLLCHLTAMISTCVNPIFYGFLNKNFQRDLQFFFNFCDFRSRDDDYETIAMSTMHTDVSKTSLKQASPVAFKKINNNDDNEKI

INS1 = test: INS-1E survival protection against cytokine death – cell-based, luminescence, retest, dose response (AID 449756); type: functional; details: Rattus norvegicus, INS1;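 also: cell death triggered by IL-1 beta plus TNF-alpha plus IFN-gamma mixture; protective hits raise ATP signal compared with cytokine alone wells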
Cytochrome P450 2D6 = Cytochrome P450 2D6 (Homo sapiens, UniProt P10635); test: qHTS Assay for Inhibitors and Substrates of Cytochrome P450 2D6. [Related pubchem assays: 410 ]; type: ADME; details: read-out: Potency
Chain of Cytochrome P450 2D6 (P10635 whole entry): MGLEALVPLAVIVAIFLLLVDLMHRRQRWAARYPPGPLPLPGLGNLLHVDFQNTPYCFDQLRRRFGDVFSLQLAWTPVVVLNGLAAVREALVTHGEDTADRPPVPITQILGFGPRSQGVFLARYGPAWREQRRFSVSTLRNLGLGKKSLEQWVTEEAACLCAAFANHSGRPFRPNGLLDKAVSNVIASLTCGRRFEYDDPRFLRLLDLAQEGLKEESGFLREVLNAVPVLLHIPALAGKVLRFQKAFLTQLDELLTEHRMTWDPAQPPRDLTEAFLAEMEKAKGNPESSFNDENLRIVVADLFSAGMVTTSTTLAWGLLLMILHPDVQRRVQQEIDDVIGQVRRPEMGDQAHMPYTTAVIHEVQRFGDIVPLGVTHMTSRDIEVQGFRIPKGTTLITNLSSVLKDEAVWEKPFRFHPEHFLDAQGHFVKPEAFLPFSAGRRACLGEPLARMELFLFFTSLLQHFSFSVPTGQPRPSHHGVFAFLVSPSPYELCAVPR

[5] = molecular target: Eukaryotic translation initiation factor 4H (Homo sapiens, UniProt Q15056); test: eIF4H binding inhibition – biochemical, uHTS, fluorescence polarization, translation initiation inhibitor project, primary screen (AID 2012)
[6] = molecular target: T3, Mannose-6-phosphate isomerase (Homo sapiens, UniProt P34949); test: MPI inhibition at elevated mannose 6-phosphate – biochemical, fluorescence intensity, high mannose 6-phosphate, primary screen (AID 1220)
T3 sequence (P34949 whole entry): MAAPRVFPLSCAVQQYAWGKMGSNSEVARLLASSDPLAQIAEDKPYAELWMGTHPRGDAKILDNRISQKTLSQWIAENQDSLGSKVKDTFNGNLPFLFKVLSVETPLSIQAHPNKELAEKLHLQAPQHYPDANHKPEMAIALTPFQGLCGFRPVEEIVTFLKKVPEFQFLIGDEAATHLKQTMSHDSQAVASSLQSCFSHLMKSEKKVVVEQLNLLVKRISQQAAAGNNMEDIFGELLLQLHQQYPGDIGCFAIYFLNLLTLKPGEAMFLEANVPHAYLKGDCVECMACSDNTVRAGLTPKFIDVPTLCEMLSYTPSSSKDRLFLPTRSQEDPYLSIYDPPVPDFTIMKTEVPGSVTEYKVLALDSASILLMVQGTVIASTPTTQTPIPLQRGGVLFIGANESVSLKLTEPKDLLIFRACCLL

[7] = molecular target: Polyadenylate-binding protein 1 (Homo sapiens, UniProt P11940); test: blockers of PABP interaction with poly(A) – biochemical, fluorescence polarization, […] (AID 2014)
Chain of Polyadenylate-binding protein 1 (P11940 whole entry): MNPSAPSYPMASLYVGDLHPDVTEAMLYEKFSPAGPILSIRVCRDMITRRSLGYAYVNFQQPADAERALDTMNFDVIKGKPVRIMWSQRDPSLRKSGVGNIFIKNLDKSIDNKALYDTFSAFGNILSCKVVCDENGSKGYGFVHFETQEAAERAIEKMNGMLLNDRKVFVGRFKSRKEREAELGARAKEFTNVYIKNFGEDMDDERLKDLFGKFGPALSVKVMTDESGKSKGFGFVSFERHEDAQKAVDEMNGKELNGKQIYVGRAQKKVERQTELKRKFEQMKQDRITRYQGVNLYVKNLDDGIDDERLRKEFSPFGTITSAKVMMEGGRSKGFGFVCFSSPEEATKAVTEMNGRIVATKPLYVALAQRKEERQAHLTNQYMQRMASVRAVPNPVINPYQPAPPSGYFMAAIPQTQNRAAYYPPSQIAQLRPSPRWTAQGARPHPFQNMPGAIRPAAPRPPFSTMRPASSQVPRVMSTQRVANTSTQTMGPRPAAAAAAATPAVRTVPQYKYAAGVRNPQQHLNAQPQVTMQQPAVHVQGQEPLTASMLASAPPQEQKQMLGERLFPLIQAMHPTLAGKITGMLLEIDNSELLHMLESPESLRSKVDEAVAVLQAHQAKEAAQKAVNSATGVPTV

Which results are given for `Cc1ccc(C(=O)C[n+]2cc(-c3ccccc3)n3c2CCCCC3)cc1`?
IC50 [1]: 31.2 µM (not active); IC50 [2]: 8.01 µM (active); IC50 [3]: > 14.6 µM (not active); IC50 [4]: 6.06 µM (active); AC50 (INS1): 4.71 µM (active)

Which AC50 (Cytochrome P450 2D6) does the source give for `COc1cc(C(=O)O[C@@H]2CC(C)=CC[C@@]3(C)CC[C@](O)(C(C)C)[C@H]23)ccc1O` here?
Its AC50 is 31.6 µM (inconclusive).

`COc1ccc(C(=O)C[N+]2(C)CCOCC2)cc1` was tested. Which IC50 [5] did it give?
Its IC50 is > 100 µM (inactive).

What about the IC50 [6] of the same compound?
Its IC50 is > 50 µM (not active).

And the IC50 [7]?
Its IC50 is 4.41 µM (active).
